Experimental data from ChEMBL document CHEMBL1155301, “Optimization of the aminopyridopyrazinones class of PDE5 inhibitors: discovery of 3-[(trans-4-hydroxycyclohexyl)amino]-7-(6-methoxypyridin-3-yl)-1-(2-propoxyethyl)pyrido[3,4-b]pyrazin-2(1H)-one” (Bioorg Med Chem Lett, 2009).
“And” between values parts separate entries of the source, which are not always exact repeats. Equal entries are not always repeated. The source made the active and inactive calls. No cut-off for these calls is given here.

Tests used:
[1] = molecular target: cGMP-specific 3',5'-cyclic phosphodiesterase (Homo sapiens, UniProt O76074); assay: Inhibition of PDE5
[2] = molecular target: Rod cGMP-specific 3',5'-cyclic phosphodiesterase subunit alpha (Homo sapiens, UniProt P16499); assay: Inhibition of PDE6
Chain of Rod cGMP-specific 3',5'-cyclic phosphodiesterase subunit alpha (P16499 whole entry): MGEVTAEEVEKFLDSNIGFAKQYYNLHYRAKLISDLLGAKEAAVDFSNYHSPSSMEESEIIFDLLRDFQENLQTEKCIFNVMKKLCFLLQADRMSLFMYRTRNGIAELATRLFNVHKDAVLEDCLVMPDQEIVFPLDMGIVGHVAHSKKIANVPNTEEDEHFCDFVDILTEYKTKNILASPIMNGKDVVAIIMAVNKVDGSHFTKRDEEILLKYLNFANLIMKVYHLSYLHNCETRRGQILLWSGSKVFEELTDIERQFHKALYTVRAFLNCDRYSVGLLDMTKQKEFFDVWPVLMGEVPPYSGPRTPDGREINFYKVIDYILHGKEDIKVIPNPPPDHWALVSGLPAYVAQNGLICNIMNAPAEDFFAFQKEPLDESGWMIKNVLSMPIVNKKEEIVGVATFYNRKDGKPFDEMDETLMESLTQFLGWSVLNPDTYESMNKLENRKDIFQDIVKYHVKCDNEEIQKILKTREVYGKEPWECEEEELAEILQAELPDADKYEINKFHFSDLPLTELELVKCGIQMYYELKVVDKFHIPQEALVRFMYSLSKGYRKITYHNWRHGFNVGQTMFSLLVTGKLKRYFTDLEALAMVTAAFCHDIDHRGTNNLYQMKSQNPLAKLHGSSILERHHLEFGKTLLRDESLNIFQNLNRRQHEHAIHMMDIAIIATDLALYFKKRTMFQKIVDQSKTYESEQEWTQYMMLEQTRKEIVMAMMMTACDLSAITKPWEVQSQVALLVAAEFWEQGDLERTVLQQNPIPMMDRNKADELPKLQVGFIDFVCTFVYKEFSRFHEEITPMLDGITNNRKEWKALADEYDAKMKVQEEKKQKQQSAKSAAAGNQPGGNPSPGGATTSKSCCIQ

[3] = Clearance in dog at 2 mg/kg, po and 2 mg/kg, iv; type: ADME, organism-based, Canis lupus familiaris; conditions: in vivo
[4] = Clearance in rat at 2 mg/kg, po and 2 mg/kg, iv; type: ADME, organism-based; conditions: in vivo
[5] = Oral bioavailability in rat at 2 mg/kg; type: ADME, organism-based; conditions: in vivo
[6] = Volume of distribution in dog at 2 mg/kg, iv and 2 mg/kg, po; type: ADME, organism-based, Canis lupus familiaris; conditions: in vivo
[7] = Half life in dog at 2 mg/kg, po and 2 mg/kg, iv; type: ADME, organism-based, Canis lupus familiaris; conditions: in vivo
[8] = Volume of distribution in rat at 2 mg/kg, iv and 2 mg/kg, po; type: ADME, organism-based; conditions: in vivo
[9] = Half life in rat at 2 mg/kg, po and 2 mg/kg, iv; type: ADME, organism-based; conditions: in vivo
[10] = Oral bioavailability in dog at 2 mg/kg; type: ADME, organism-based, Canis lupus familiaris; conditions: in vivo
[11] = test system: Rattus norvegicus; assay: Antihypertensive activity against telemeterized rat at 10 mg/kg, po; type: functional, organism-based; design: dose 10 mg/kg
[12] = Selectivity ratio of IC50 for PDE5 to IC50 for PDE6

SMILES | IC50 [1] [nM] | IC50 [2] [nM] | other results
CCCOCCn1c(=O)c(N[C@@H](C)CO)nc2ncc(-c3ccc(OC)nc3)cc21 | 0.55 | 68.2 | –
CCCOCCn1c(=O)c(NCC(=O)N2CCOCC2)nc2cnc(-c3ccc(OC)nc3)cc21 | 0.15 | 16.1 | clearance [3]: 5.3 mL/min/kg; clearance [4]: 9.1 mL/min/kg; bioavailability [5]: 35%; Vd [6]: 1.2 L/kg; half-life [7]: 3.9 h; Vd [8]: 0.5 L/kg; half-life [9]: 0.8 h; bioavailability [10]: 32%
CCCOCCn1c(=O)c(NCc2cnccn2)nc2ncc(-c3ccc(OC)nc3)cc21 | 0.28 | 23.6 | Activity [11]: Active
CCCOCCn1c(=O)c(NCC(=O)N2CCN(C)CC2)nc2cnc(-c3ccc(OC)nc3)cc21 | 0.07 | 14.7 | –
CCCOCCn1c(=O)c(NCCN(C)C)nc2cnc(-c3ccc(OC)nc3)cc21 | 0.78 | 261 | –
CCCOCCn1c(=O)c(NCc2cnccn2)nc2cnc(-c3ccc(OC)nc3)cc21 | 0.06 | 4.7 | –
CCCOCCn1c(=O)c(NCCOCC)nc2ncc(-c3ccc(OC)nc3)cc21 | 0.17 | 57.4 | Activity [11]: inactive
CCCOCCn1c(=O)c(NCC(=O)O)nc2ncc(-c3ccc(OC)nc3)cc21 | 2.95 | 576 | –
CCCOCCn1c(=O)c(NCCOCC)nc2cnc(-c3ccc(OC)nc3)cc21 | 0.11 | 9.3 | –
CCCOCCn1c(=O)c(N[C@H]2CC[C@H](O)CC2)nc2ncc(-c3ccc(OC)nc3)cc21 | 0.32 | 15.3 | –
CCCOCCn1c(=O)c(N[C@H](C)CO)nc2cnc(-c3ccc(OC)nc3)cc21 | 0.14 | 17.7 | –
CCCOCCn1c(=O)c(N[C@H](CC)CO)nc2cnc(-c3ccc(OC)nc3)cc21 | 0.25 | 23.2 | clearance [4]: 22.6 mL/min/kg; bioavailability [5]: 61%; Vd [8]: 2.4 L/kg; half-life [9]: 1.8 h
CCCOCCn1c(=O)c(NCC(=O)N2CCN(CC)CC2)nc2ncc(-c3ccc(OC)nc3)cc21 | 0.38 | 98.9 | –
CCCOCCn1c(=O)c(NCC(=O)N2CCC(O)CC2)nc2cnc(-c3ccc(OC)nc3)cc21 | 0.13 | 24.6 | clearance [4]: 10.5 mL/min/kg; bioavailability [5]: 52%; Vd [8]: 1 L/kg; half-life [9]: 1.7 h
CCCOCCn1c(=O)c(NCC(=O)N2CCN(CC)CC2)nc2cnc(-c3ccc(OC)nc3)cc21 | 0.13 | 55.9 | clearance [3]: 37 mL/min/kg; clearance [4]: 28 mL/min/kg; bioavailability [5]: 61%; Vd [6]: 8 L/kg; half-life [7]: 3.5 h; Vd [8]: 2.3 L/kg; half-life [9]: 1.4 h; bioavailability [10]: 15%
CCCOCCn1c(=O)c(NCC(=O)N2CCCC2)nc2cnc(-c3ccc(OC)nc3)cc21 | 0.08 | 39.5 | –
CCCOCCn1c(=O)c(NCCN(C)C)nc2ncc(-c3ccc(OC)nc3)cc21 | 4 | 1590 | –
CCCOCCn1c(=O)c(NC[C@@H](C)O)nc2cnc(-c3ccc(OC)nc3)cc21 | 0.1 | 15.1 | –
CCCOCCn1c(=O)c(NCCNCCO)nc2cnc(-c3ccc(OC)nc3)cc21 | 1.1 | 272 | clearance [4]: 170 mL/min/kg; bioavailability [5]: 53%; Activity [11]: Active
CCCOCCn1c(=O)c(NCc2ccccn2)nc2ncc(-c3ccc(OC)nc3)cc21 | 0.36 | 34.5 | –
CCCOCCn1c(=O)c(NCCO)nc2cnc(-c3ccc(OC)nc3)cc21 | 0.9 | 26.3 | Ratio IC50 [12]: 30; Activity [11]: inactive

SMILES | IC50 [1] [nM] | IC50 [2] [nM] | other results
CCCOCCn1c(=O)c(NCC(=O)N2CCN(C)CC2)nc2ncc(-c3ccc(OC)nc3)cc21 | 0.32 | 80.2 | –
CCCOCCn1c(=O)c(NCC(=O)NC)nc2ncc(-c3ccc(OC)nc3)cc21 | 0.43 | 115 | clearance [3]: 8.8 mL/min/kg; clearance [4]: 19.5 mL/min/kg; bioavailability [5]: 39%; Vd [6]: 1.3 L/kg; half-life [7]: 2.4 h; Vd [8]: 1 L/kg; half-life [9]: 0.8 h; bioavailability [10]: 52%
CCCOCCn1c(=O)c(NCC(=O)N2CCOCC2)nc2ncc(-c3ccc(OC)nc3)cc21 | 1.17 | 114 | clearance [3]: 16.7 mL/min/kg; clearance [4]: 18 mL/min/kg; bioavailability [5]: 51%; Vd [6]: 0.9 L/kg; half-life [7]: 0.9 h; Vd [8]: 0.8 L/kg; half-life [9]: 0.8 h; bioavailability [10]: 32%
CCCOCCn1c(=O)c(NC[C@H](C)O)nc2ncc(-c3ccc(OC)nc3)cc21 | 0.34 | 51.8 | –
CCCOCCn1c(=O)c(N[C@@H](C)CO)nc2cnc(-c3ccc(OC)nc3)cc21 | 0.24 | 17.9 | –
CCCOCCn1c(=O)c(N[C@H](C)CO)nc2ncc(-c3ccc(OC)nc3)cc21 | 0.88 | 63.2 | –
CCCOCCn1c(=O)c(NCC2CCCO2)nc2cnc(-c3ccc(OC)nc3)cc21 (racemic) | 0.05 | 8.6 | clearance [4]: 52 mL/min/kg; Activity [11]: Active
CCCOCCn1c(=O)c(NCc2ccccn2)nc2cnc(-c3ccc(OC)nc3)cc21 | 0.04 | 10.8 | clearance [4]: 21.9 mL/min/kg; bioavailability [5]: 54%; Activity [11]: Active
CCCOCCn1c(=O)c(NCC2CCOCC2)nc2ncc(-c3ccc(OC)nc3)cc21 | 0.14 | 31.4 | clearance [4]: 30 mL/min/kg; bioavailability [5]: 15%; Activity [11]: Active
CCCOCCn1c(=O)c(NCC(N)=O)nc2ncc(-c3ccc(OC)nc3)cc21 | 2.59 | 398 | –
CCCOCCn1c(=O)c(NCC(=O)N(C)C)nc2ncc(-c3ccc(OC)nc3)cc21 | 2.59 | 398 | clearance [3]: 9.4 mL/min/kg; clearance [4]: 33 mL/min/kg; bioavailability [5]: 46%; Vd [6]: 1.2 L/kg; half-life [7]: 2.1 h; Vd [8]: 1.1 L/kg; half-life [9]: 0.6 h; bioavailability [10]: 32%; Activity [11]: Active
CCCOCCn1c(=O)c(NCCN)nc2ncc(-c3ccc(OC)nc3)cc21 | 16.3 | > 2000 | –
CCCOCCn1c(=O)c(NCC(=O)O)nc2cnc(-c3ccc(OC)nc3)cc21 | 1.05 | 45.5 | Ratio IC50 [12]: 43 and 30; Activity [11]: inactive
CCCOCCn1c(=O)c(NCCCO)nc2ncc(-c3ccc(OC)nc3)cc21 | 0.71 | 124 | –
CCCOCCn1c(=O)c(NC[C@@H](C)O)nc2ncc(-c3ccc(OC)nc3)cc21 | 0.54 | 49.7 | –
CCCOCCn1c(=O)c(NCCO)nc2ncc(-c3ccc(OC)nc3)cc21 | 1.17 | 114 | Ratio IC50 [12]: 97; Activity [11]: Active
CCCOCCn1c(=O)c(NCC(=O)N2CCNCC2)nc2cnc(-c3ccc(OC)nc3)cc21 | 1.65 | 100 | –
CCCOCCn1c(=O)c(NCC(N)=O)nc2cnc(-c3ccc(OC)nc3)cc21 | 0.68 | 86.6 | –
CCCOCCn1c(=O)c(NCC(=O)NC)nc2cnc(-c3ccc(OC)nc3)cc21 | 0.07 | 15.2 | –
CCCOCCn1c(=O)c(NCCN)nc2cnc(-c3ccc(OC)nc3)cc21 | 0.25 | 1210 | –
